Structures can show the parent of a compound that is named as a salt.
melting point [°C]	Structure (SMILES)
176.3 to 182	O=C(N[C@H](Cc1ccccc1)C(=O)O)OCC1Cc2cc(-c3ccccc3)ccc2O1 (stereo partly drawn) (as salt: salt) [Compound 68, (R)-3-Phenyl-2-(5-phenyl-2,3-dihydro-benzofuran-2-ylmethoxycarbonylamino)-propionic acid]
152.6 to 154.8	COc1ccc(NCC(NC(=O)OCc2ccc(-c3ccccc3)cc2)C(=O)O)cc1 (stereo not drawn) [Compound 180, 2-(biphenyl-4-ylmethoxycarbonylamino)-3-(4-methoxy-phenylamino)-propionic acid]
163 to 167	O=C(N[C@H](Cc1ccccc1)C(=O)O)OCc1cc2cc(-c3cc(F)cc(F)c3)ccc2o1 [Compound 99, (R)-2-[5-(3,5-difluoro-phenyl)-benzofuran-2-ylmethoxycarbonylamino]-3-phenyl-propionic acid]
96.6 to 98.6	O=C(N[C@H](Cc1ccccc1)C(=O)O)OCc1ccc(COc2cccc(NS(=O)(=O)c3ccccc3)c2)cc1 [Compound 78, (R)-2-[4-(3-benzenesulfonylamino-phenoxymethyl)-benzyloxycarbonylamino]-3-phenyl-propionic acid]
159 to 160	O=C(N[C@H](Cc1ccccc1)C(=O)O)OCc1cc2cc(-c3cccc(F)c3F)ccc2o1 [Compound 100, (R)-2-[5-(2,3-difluoro-phenyl)-benzofuran-2-ylmethoxycarbonylamino]-3-phenyl-propionic acid]
132 to 156.1	COc1ccc(-c2ccc3oc(COC(=O)N[C@H](Cc4ccccc4)C(=O)O)cc3c2)cc1 (hydrate or solvate) [Compound 92, (R)-2-[5-(4-methoxy-phenyl)-benzofuran-2-ylmethoxycarbonylamino]-3-phenyl-propionic acid]
96.9 to 97.4	O=C(NC(Cc1ccccc1)C(=O)O)OCc1ccc(OCCc2ccccc2)cc1 (stereo not drawn) [Compound 86, 2-(4-phenethyloxy-benzyloxycarbonylamino)-3-phenyl-propionic acid]
176 to 177	Cn1c(-c2ccccc2)nc2cc(COC(=O)N[C@H](Cc3ccccc3)C(=O)O)ccc21 [Compound 130, (R)-2-(1-Methyl-2-phenyl-1H-benzoimidazol-5-ylmethoxycarbonylamino)-3-phenyl-propionic acid]
165 to 168.5	O=C(NC(Cc1ccccc1)C(=O)O)OCc1ccc(/C=C/c2ccccc2)cc1 (stereo not drawn) [Compound 133, 3-phenyl-2-[4-((E)-styryl)-benzyloxycarbonylamino]-propionic acid]
190 to 191	O=C(N[C@H](Cc1ccccc1)C(=O)O)OCc1ccc2nc(-c3ccccc3)ccc2c1 [Compound 131, (R)-3-phenyl-2-(2-phenyl-quinolin-6-ylmethoxycarbonylamino)-propionic acid]
154 to 156	O=C(N[C@H](Cc1ccccc1)C(=O)O)OCc1cc2cc(-c3ccccc3)ccc2o1 [Compound 19, (R)-2-(5-Phenyl-benzofuran-2-ylmethoxycarbonylamino)-3-phenyl-propionic acid]
174.7 to 175	O=C(NC(Cc1cccnn1)C(=O)O)OCc1cc2cc(-c3ccccc3)ccc2o1 (stereo not drawn) [Compound 167, 2-(5-phenyl-benzofuran-2-ylmethoxycarbonylamino)-3-pyridazin-3-yl-propionic acid]
172.1 to 173.4	O=C(NC(Cc1ccccc1)C(=O)O)OCc1ccc(C#Cc2ccccc2)cc1 (stereo not drawn) [Compound 182, 3-phenyl-2-(4-phenylethynyl-benzyloxycarbonylamino)-propionic acid]
243 to 245	O=C(N[C@H](Cc1nc2ccccc2[nH]1)C(=O)O)OCc1ccc(-c2ccccc2)cc1 [Compound 150, (R)-3-(1H-benzoimidazol-2-yl)-2-(biphenyl-4-ylmethoxycarbonylamino)-propionic acid]
190.3 to 193.5	CC(=O)Nc1cccc(OCc2ccc(COC(=O)N[C@H](Cc3ccccc3)C(=O)O)cc2)c1 [Compound 79, (R)-2-[4-(3-acetylamino-phenoxymethyl)-benzyloxycarbonylamino]-3-phenyl-propionic acid]
